Patent publication US20060045847A1, “Method for determination of anabolic activity” (priority 2004, published 2006)
Where two headings read alike, the source gives them in different places.

Columns and labels:
[1] = system: gonadectomized (GDX) male C57BL6 mice; test: 7-day daily s.c. treatment, androgen-sensitive tissue weights in gonadectomized mice; assay type: in vivo, mouse; settings: daily s.c. 7 days, DHT 0.1 mg or THG 0.5 mg; for levator ani muscle weight: versus intact animals; for prostate weight: versus intact controls
Source text: We next used the best recognized in vivo assay to assess the in vivo activity of THG [Labrie, C., A. Bélanger, and F. Labrie, Androgenic activity of dehydroepiandrosterone and androstenedione in the rat ventral prostate. Endocrinology, 1988. 123: p. 1412-1417]. […] The levator ani is an androgen-sensitive muscle [Boissonneault, G., et al., Depressed translational activity in the androgen sensitive levator ani muscle of the rat. J Steroid Biochem, 1989. 32(4): p. 507-13] which has long been recognized as a myotropic marker of the androgenic/anabolic activity of steroids [Eisenberg, S., R. Buie, Jr., and L. Tobian, Jr., Adrenal cortical function in essential hypertension; a study of sweat sodium concentration. Am J Med Sci, 1950. 220(3): p. 287-9].
Eleven- to twelve-week-old male C57BL6 mice obtained from Harlan (Indianapolis, Ind.) were allowed to acclimate for 2 weeks. The animals were housed individually in an environmentally-controlled room (temperature: 22±3° C.; humidity: 50±20%; 12-h light-12-h dark cycles, lights on at 07:15 h). The mice had free access to tap water and a certified rodent feed (Lab Diet 5002 (pellet), Ralston Purina, St-Louis, Mo.). The experiment was conducted in an animal facility approved by the Canadian Council on Animal Care (CCAC) and the Association for Assessment and Accreditation of Laboratory Animal Care (AAALAC). The study was performed in accordance with the CCAC Guide for Care and Use of Experimental Animals.
(§1) Animals weighing between 24.0 and 32.4 g (mean=28.2 g) were randomized according to body weight and were assigned to nineteen groups of 10 animals each. On day 1 of the study, animals were castrated (GDX) under isoflurane anesthesia. All animals were sacrificed 7 days after GDX. […] A GDX-vehicle injected group were used as a control. Eight intact mice of the same strain, age and body weight were sacrificed as described above and tissues were collected, weighed and discarded. The mice sacrificed 2, 4 and 7 days after starting treatment received daily injection of the steroids and were sacrificed 24 h after last injection under isoflurane anesthesia and exsanguinated via cardiac puncture. The prostate (ventral+dorsal), seminal vesicles, preputial glands as well as gastrocnemius and levator ani muscle were collected, freed from adhering tissue or fluid and weighed.

human androgen receptor = biological target: T1, human androgen receptor (Homo sapiens, UniProt P10275); test: Androgen receptor (AR) binding assay, displacement of [3H]R1881 (hydroxylapatite method)
T1 construct: expressed in transfected cells; host or cells: HEK-293 cells stably transfected with the pCMV neo-hAR plasmid; the 105 000 x g cytosol was used
T1 sequence (P10275 1-920): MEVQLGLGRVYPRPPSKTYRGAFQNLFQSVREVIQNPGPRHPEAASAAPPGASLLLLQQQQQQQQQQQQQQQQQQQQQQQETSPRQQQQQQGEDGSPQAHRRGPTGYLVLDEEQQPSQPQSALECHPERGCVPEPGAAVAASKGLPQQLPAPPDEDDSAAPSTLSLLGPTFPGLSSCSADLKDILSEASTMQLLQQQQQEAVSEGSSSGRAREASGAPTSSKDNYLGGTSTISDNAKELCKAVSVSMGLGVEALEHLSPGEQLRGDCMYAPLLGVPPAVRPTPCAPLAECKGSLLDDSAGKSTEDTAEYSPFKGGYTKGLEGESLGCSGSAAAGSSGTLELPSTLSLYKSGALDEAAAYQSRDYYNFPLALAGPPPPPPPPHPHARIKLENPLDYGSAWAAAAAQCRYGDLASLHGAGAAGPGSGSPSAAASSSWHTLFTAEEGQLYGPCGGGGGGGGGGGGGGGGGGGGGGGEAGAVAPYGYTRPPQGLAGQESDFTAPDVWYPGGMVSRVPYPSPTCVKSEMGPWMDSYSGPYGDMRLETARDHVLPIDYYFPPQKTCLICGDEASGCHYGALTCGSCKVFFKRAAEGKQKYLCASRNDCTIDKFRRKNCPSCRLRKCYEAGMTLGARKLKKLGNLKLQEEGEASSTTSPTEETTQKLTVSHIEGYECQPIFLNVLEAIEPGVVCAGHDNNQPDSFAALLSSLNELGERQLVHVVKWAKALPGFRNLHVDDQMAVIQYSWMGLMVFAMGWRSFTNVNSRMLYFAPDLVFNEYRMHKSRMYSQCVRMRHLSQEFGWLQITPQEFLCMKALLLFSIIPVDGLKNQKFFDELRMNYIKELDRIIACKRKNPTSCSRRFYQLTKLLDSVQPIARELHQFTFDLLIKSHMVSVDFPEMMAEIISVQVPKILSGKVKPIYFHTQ
Method: The incubation was performed with 3 nM [^3H]R1881 for 16 h at 0-4° C. in the presence or absence of the indicated concentrations of unlabeled compounds.
Androgen Receptor (AR) Assay
Preparation of Human Embryonic Kidney (HEK-293) cells stably Transfected with Human AR (hAR): The pCMV neo-hAR plasmid [Huang, X.-F. and V. Luu-The, Modulation of the androgenic response by recombinant human 11-cis retinol dehydrogenase. J. Steroid Biochem., 2001. 77(2-3): p. 129-133] was transfected into HEK-293 cells using lipofectin transfection kit (Life Technologies, Ontario, Canada), and cells resistant to G418 were isolated as previously described [Dufort, I., et al., Characteristics of a highly labile human type 5 17beta-hydroxysteroid dehydrogenase. Endocrinology, 1999. 140(2): p. 568-574]. On the morning of the binding assay, a pellet of HEK-293 hAR cells was thawed, suspended in buffer, sonicated and centrifuged at 105 000×g for 90 min. The androgen binding assay was performed with the hydroxylapatite (HAP) method [Martel, C., et al., Binding characteristics of novel nonsteroidal antiestrogens to the rat uterine estrogen receptors. J. Steroid Biochem. Mol. Biol., 1998. 64: p. 199-205] using HEK-293 hAR cell cytosol preparation (0.1 ml) and 3 nM [^3H]R1881.

[2] = system: androgen-sensitive genes in levator ani muscle, gastrocnemius muscle and prostate; test: Microarray gene expression profile in tissues of GDX mice, genes modulated in common with DHT; assay type: in vivo, mouse; settings: s.c. 0.5 mg THG vs 0.1 mg DHT, 0.5 h to 7 days
Source text: The genes selected were those identified in common according to the Affymetrix, MAS 5.0 and RMA program [Gautier, L., et al., affy—analysis of Affymetrix GeneChip data at the probe level. Bioinformatics, 2004. 20(3): p. 307-15]. Color scale representing days of fold change due to treatments is shown below the figure.
The selected genes were clustered by Euclidean distance. Columns represents each one of the 790 selected gene and each row a particular treatement group. A pseudo-colored representation of relative intensity is shown such that red indicates high, blue low and yellow unchanged expression, with scale shown at the right.
In the prostate, on the other hand, the classical androgen-sensitive tissue [Labrie, C., A. Bélanger, and F. Labrie, Androgenic activity of dehydroepiandrosterone and androstenedione in the rat ventral prostate. Endocrinology, 1988. 123: p.
as §1, with “The prostate (ventral+dorsal), seminal vesicles, preputial glands as well as gastrocnemius and levator ani muscle were collected, freed from adhering tissue or fluid and weighed.” left out
RNA extraction and microarrays tissues were snap-frozen in liquid nitrogen and kept at −80° C. prior to RNA extraction. […] Scanned images were analyzed with Affymetrix GCOS v1.1 software and with GeneSpring 6.1 software (Silicon Genetics, Redwood City, Calif.) as described [Vasseur, S., et al., Gene expression profiling by DNA microarray analysis in mouse embryonicfibroblasts transformed by rasV12 mutated protein and the E1A oncogene. […]

mouse prostate = test: Preliminary experiment: stimulation of mouse prostate weight, potency relative to DHT; assay type: in vivo; settings: data not shown
Source text: We next used the best recognized in vivo assay to assess the in vivo activity of THG [Labrie, C., A. Bélanger, and F. Labrie, Androgenic activity of dehydroepiandrosterone and androstenedione in the rat ventral prostate. Endocrinology, 1988. 123: p. 1412-1417]. […] Similar observations were made for the preputial gland. The levator ani is an androgen-sensitive muscle [Boissonneault, G., et al., Depressed translational activity in the androgen sensitive levator ani muscle of the rat. J Steroid Biochem, 1989. 32(4): p. 507-13] which has long been recognized as a myotropic marker of the androgenic/anabolic activity of steroids [Eisenberg, S., R. Buie, Jr., and L. Tobian, Jr., Adrenal cortical function in essential hypertension; a study of sweat sodium concentration. Am J Med Sci, 1950. 220(3): p. 287-9].

SMILES | preputial gland weight [1] | seminal vesicle weight [1] | levator ani muscle weight [1] | prostate weight [1] | relative potency to displace [3H]R1881 from the human AR (human androgen receptor) | number of genes commonly modulated by DHT and THG in gastrocnemius muscle [2] | number of genes commonly modulated by DHT and THG in levator ani muscle [2] | number of genes commonly modulated by DHT and THG in prostate [2] | potency relative to DHT as stimulator of the weight of the mouse prostate (mouse prostate) | relative potency to displace [3H]R1881 from the human AR (human androgen receptor; 3 nM [3H]R1881, 16 h at 0-4° C., HEK-293 hAR cell cytosol, THG = 1.0)
C[C@]12CCC(=O)C[C@@H]1CC[C@@H]1[C@@H]2CC[C@]2(C)[C@@H](O)CC[C@@H]12 [DHT, dihydrotestosterone, reference compound] | completely reversed the GDX-induced atrophy | completely reversed the GDX-induced atrophy | increased weight of levator ani to values not different from intact animals | completely reversed the GDX-induced atrophy of the prostate |  |  |  |  |  | 
C[C@]1(O)CC[C@H]2[C@@H]3CCC4=CC(=O)CCC4=C3C=C[C@@]21C [R1881, methyltrienolone, reference compound] |  |  |  |  | 0.72 |  |  |  |  | 
CC[C@]1(O)CC[C@H]2[C@@H]3CCC4=CC(=O)CCC4=C3C=C[C@@]21CC [THG, tetrahydrogestrinone] | completely reversed the GDX-induced atrophy | completely reversed the GDX-induced atrophy | increased weight of levator ani to values not different from intact animals | reversed the effect of GDX, to a value not statistically different from intact controls |  | 112 genes | 790 genes | 1121 genes | 20% | 1.0
